Assay type in all cases: cell-based
Assay [1] deals with NK1 (Homo sapiens, UniProt P25103). The assay is described as follows: Signal transduction (ST), intracellular Ca++ (FLIPR), NK1 antagonism. To be noted: read-out: pIC50 NK1 (converted). The method, boiled down:
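Confluent cells were loaded with 2 μM Fluo3 with probenecid for 1 h at 37°C, then preincubated with antagonist concentration ranges for 20 min at RT before agonist addition. Peak FLIPR calcium transient was taken as signal; IC50 from non-linear regression of sigmoidal curves.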

The target of assay [2] is T1, NK2 (Homo sapiens, UniProt P21452).
T1 sequence (P21452 1-398): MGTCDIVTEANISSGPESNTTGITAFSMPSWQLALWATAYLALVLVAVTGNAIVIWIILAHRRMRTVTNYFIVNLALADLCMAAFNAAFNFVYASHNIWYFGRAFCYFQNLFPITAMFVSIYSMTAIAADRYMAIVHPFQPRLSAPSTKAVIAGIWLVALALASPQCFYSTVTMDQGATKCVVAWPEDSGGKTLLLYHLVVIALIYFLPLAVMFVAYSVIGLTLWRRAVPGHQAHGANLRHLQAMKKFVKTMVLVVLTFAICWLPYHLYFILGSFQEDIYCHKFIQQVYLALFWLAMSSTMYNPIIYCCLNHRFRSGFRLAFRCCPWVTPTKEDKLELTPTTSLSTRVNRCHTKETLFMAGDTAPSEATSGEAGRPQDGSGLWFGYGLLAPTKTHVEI
The assay is described as follows: Signal transduction (ST), intracellular Ca++ (FLIPR), NK2. To be noted: read-out: pIC50 NK2 (converted).

For assay [3], the target named is T2, NK3 (Homo sapiens, UniProt P29371).
T2 sequence (P29371 1-465): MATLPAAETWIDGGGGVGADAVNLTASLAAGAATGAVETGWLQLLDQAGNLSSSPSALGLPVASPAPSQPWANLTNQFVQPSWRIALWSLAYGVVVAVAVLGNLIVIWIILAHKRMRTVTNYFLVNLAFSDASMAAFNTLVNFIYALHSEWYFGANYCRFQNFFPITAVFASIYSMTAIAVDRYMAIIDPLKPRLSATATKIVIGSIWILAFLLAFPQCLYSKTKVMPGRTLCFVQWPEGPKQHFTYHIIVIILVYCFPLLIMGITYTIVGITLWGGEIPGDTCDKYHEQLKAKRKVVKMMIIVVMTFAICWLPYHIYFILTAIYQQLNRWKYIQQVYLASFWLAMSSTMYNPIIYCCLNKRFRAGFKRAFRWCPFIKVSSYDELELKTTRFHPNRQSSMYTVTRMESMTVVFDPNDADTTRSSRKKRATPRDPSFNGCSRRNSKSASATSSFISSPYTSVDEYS
Put plainly: Signal transduction (ST), intracellular Ca++ (FLIPR), NK3. The note with it: read-out: pIC50 NK3 (converted).

NK1, sequence (P25103 whole entry): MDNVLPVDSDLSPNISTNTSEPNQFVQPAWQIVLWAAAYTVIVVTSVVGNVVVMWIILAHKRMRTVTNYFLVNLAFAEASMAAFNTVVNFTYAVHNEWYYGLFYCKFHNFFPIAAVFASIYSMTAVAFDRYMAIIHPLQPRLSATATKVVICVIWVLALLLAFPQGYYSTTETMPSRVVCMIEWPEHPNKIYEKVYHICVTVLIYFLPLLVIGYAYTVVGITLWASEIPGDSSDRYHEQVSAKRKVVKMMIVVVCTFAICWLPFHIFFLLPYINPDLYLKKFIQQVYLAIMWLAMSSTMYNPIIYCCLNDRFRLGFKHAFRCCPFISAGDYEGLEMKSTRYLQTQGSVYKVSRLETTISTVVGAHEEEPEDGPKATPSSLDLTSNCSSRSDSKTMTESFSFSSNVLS

As for `CC(C)(C)OC(=O)N1CCCC1C(=O)N1CCCC(N2CCN(C3CCN(C(=O)c4cc(C(F)(F)F)cc(C(F)(F)F)c4)C(Cc4ccccc4)C3)CC2)C1` (stereo not drawn) [Compound 54], the IC50 is 5.01 nM in assay [1], 2000 nM in assay [2] and 251 nM in assay [3].
For the compound `O=C(c1sccc1COCc1ccccc1)N1CCCC(N2CCN([C@H]3CCN(C(=O)c4cc(C(F)(F)F)cc(C(F)(F)F)c4)[C@H](Cc4ccccc4)C3)CC2)C1` (stereo partly drawn) [Compound 88], the IC50 in assay [1] was 39.8 nM; in assay [2], 2510 nM; in assay [3], 631 nM.
Turning to `Cc1nc(C)c(S(=O)(=O)N2CCCC(N3CCN([C@H]4CCN(C(=O)c5cc(C(F)(F)F)cc(C(F)(F)F)c5)[C@H](Cc5ccccc5)C4)CC3)C2)s1` (stereo partly drawn) [Compound 38], the IC50 in assay [1] is 6.31 nM; in assay [2] it was 200 nM; in assay [3], 251 nM.

The record behind these values is patent US7572786B2, “Substituted 1-piperidin-3-yl-4-piperidin-4-yl-piperazine derivatives and their use as neurokinin antagonists” (Janssen Pharmaceutica, N.V., priority 2002, dated 2009).
